Structure (SMILES) | logP
O=c1ssc2c1CCCC2 | 2.4
Cc1c(-c2ccccc2)ssc1=S | 3.95
CCc1cc(=O)ss1 | 1.69
Cc1cssc1=O | 1.33
Cc1ssc(=S)c1-c1ccccc1 | 3.17
COc1ccc(-c2cc(=S)ss2)cc1 | 3.82
S=c1ssc2c1CCCCC2 | 3.27
Cc1cc(=S)ss1 | 1.89
CCc1cssc1=O | 1.9
COc1ccc(-c2ssc(=S)c2C)cc1 | 4.1
CCCc1cc(=S)ss1 | 2.83
CCCc1cssc1=O | 2.38
CCCc1ssc(=S)c1C | 3.42
S=c1sscc1-c1ccccc1 | 3.2
S=c1ssc2ccccc12 | 3.57
CCCc1c(C)ssc1=O | 2.96
S=c1ccss1 | 1.58
CCCCc1cssc1=S | 3.7
CCc1cc(=S)ss1 | 2.31
S=c1cc(Cc2ccccc2)ss1 | 3.43
CCCc1ssc(=S)c1CC | 3.76
CCc1ssc(=S)c1C | 2.95
CCCc1cc(=O)ss1 | 2.24
O=c1ccss1 | 0.82

Structure (SMILES) | logP
Cc1cc(=O)ss1 | 1.26
CCCc1cssc1=S | 3.18
CCc1ssc(=S)c1-c1ccccc1 | 3.52
Cc1ccc(-c2cssc2=S)cc1 | 3.73
Cc1ssc(=S)c1C | 2.45
CCc1c(C)ssc1=S | 2.94
Cc1ssc(=S)c1Cc1ccccc1 | 3.78
S=c1ssc2c1CCC2 | 2.53
CCc1ssc(=S)c1CC | 3.51
CCc1ssc(=O)c1-c1ccccc1 | 3.15
CCc1cssc1=S | 2.67
O=c1ssc2ccccc12 | 2.73
Cc1ccc(-c2cc(=S)ss2)cc1 | 4.26
S=c1ssc2c1CCCCCC2 | 3.75
CCCCCc1cssc1=S | 4.06
Cc1cssc1=S | 2.18
CCCc1c(C)ssc1=S | 3.39
O=c1cc(-c2ccccc2)ss1 | 3.01
S=c1cc(-c2ccccc2)ss1 | 3.67
Cc1ssc(=O)c1C | 1.73
Cc1ssc(=O)c1-c1ccccc1 | 2.93
O=c1sscc1-c1ccccc1 | 2.64
CCc1ssc(=O)c1CC | 2.78
